The numbers were not newly measured in patent publication US20030180282A1, “Method of treatment of thrombotic events” (priority 2002, published 2003), which cites them from elsewhere.

The conditions of series [1]: coadministration with thrombolytic therapy.

Residues, ends and D or L forms follow the SMILES beside them.

`CC(=O)Oc1ccccc1C(=O)O` [aspirin]: in series [1], the “effect on reocclusion and recurrent ischemia” value is “approximate halving of frequency”.

Turning to `N=C(N)NCCCC[C@@H]1NC(=O)CCSSC[C@@H](C(N)=O)NC(=O)[C@@H]2CCCN2C(=O)[C@H](Cc2c[nH]c3ccccc23)NC(=O)[C@H](CC(=O)O)NC(=O)CNC1=O` [eptifibatide] (HELM PEPTIDE1{[O=C(CCS[*:3])[*:2]].[N=C(N)NCCCC[C@H](N[*:1])C(=O)[*:2]].G.D.W.P.C.[am]}$PEPTIDE1,PEPTIDE1,1:R3-7:R3$$$V2.0), the “incidence of death and reinfarction” value (IMPACT-AMI, all patients randomized, placebo 7.3%) is 8.0%. Besides, the major hemorrhage (in vivo) is 7.1%.
